From patent publication US10232043B2, “Photoactivated molecules for light-induced modulation of the activity of electrically excitable cells and methods of using the same” (UNIVERSITY OF SOUTHERN CALIFORNIA, priority 2015, dated 2019)
Entries after “also recorded” stand apart in the source; their conditions may differ.

Columns and labels:
RCS rats = experiment: Extracellular recording from superior colliculus after intravitreal injection; type: in vivo, rat
From the text: FIGS. 27C-27F depict data related to administration of Rubpy-C17. White light was used for illumination in panels A, C, and D, while blue light (450 nm) was used in panels B, E, and F.
This finding was reproduced in 3 of 3 RCS rats injected with Rubpy-C17, and in 2 of 2 control (sham injection) RCS rats.

[1] = test system: mouse adrenal chromaffin cells; experiment: Perforated patch clamp, light-triggered action potentials; type: cell-based
Procedure: Action potentials in chromaffin cells were monitored using perforated patch clamp electrophysiology in current-clamp mode, using an EPC10 amplifier and Pulsemaster data acquisition software (HEKA electronics). A coverslip containing mouse chromaffin cells was transferred to a recording chamber and perfused with extracellular solution. Extracellular solution consists of 140 mM NaCl, 2.8 mM KCl, 10 mM HEPES, 1 mM MgCl2, 2 mM CaCl2, 10 mM glucose, pH adjusted to 7.3, and osmolarity adjusted to 290-300 mOsm. Intracellular solution consisted of 145 mM KCl, 10 mM NaCl, 1 mM MgCl2, and 10 mM HEPES, pH adjusted to 7.3 and osmolarity adjusted to 290-300 mOsm. Perforation solution was prepared by adding 4.5 μl of 125 mg/ml stock of amphoterecin B (Sigma) in DMSO to 1.8 mls of intracellular solution, and homogenizing for 540 s. Perforation was achieved within 3-10 min following gigaseal formation. Series resistances were in the range of 8-22 Mohm. Light stimulation in the blue spectrum originated from a xenon lamp source with an irradiance value of 0.480 mE s^−1 m^−2 through a 470/40 nm bandpass excitation filter. The duration of illumination varied and is indicated by bars on figures.
The behavior of excitable cells (cells capable of firing action potentials) treated with RubpyC17 was next investigated. Perforated patch clamp recording was performed on, mouse adrenal chromaffin cells pretreated with 450-900 nM RubpyC17 for 15-30 minutes before beginning electrophysiological recordings.

mouse chromaffin cells = experiment: Carbon-fiber amperometry, light-triggered secretion; type: cell-based
Procedure: Carbon fiber electrodes were prepared using established methodology and coupled to an EPC10 amplifier. A +800 mV constant voltage was applied to the electrode relative to the Ag/AgCl bath electrode. The amperometry recordings were sampled at 4 kHz using Pulsemaster (HEKA). Extracellular composition consisted of 120 mM NaCl, 20 mM KCl, 10 mM HEPES, 1 mM MgCl2, 2 mM CaCl2, 10 mM glucose, pH adjusted to 7.2-7.4, and osmolarity adjusted to 290-300. Light stimulation in the blue spectrum originated from a xenon lamp source through a 470/40 nm bandpass excitation filter. The duration of illumination varied and is indicated by bars on figures.
Action potential firing triggers secretion of norepinephrine and epinephrine from adrenal chromaffin cells, which can be readily detected by the technique of carbon-fiber amperometry, thus serving as a surrogate to detect action potential firing. […] Out of 18 RubpyC17-loaded cells tested, 15 cells (83%) experienced increased secretion by at least 100-fold during light illumination. Unlike the changes in light-induced depolarization, light-induced changes in secretion appeared to be more transient One possible explanation for this is that at any moment in time, there are only a small number of release-competent vesicles—the so-called readily releasable pool of vesicles and maintained stimulation causes rapid depletion of the readily releasable pool of vesicles in the initial phase of stimulation.

`CCCCCCCCCCCCCCCCCc1ccnc(-c2cc(C)ccn2)c1.F[P-](F)(F)(F)(F)F.F[P-](F)(F)(F)(F)F.[Ru+2].c1ccc(-c2ccccn2)nc1.c1ccc(-c2ccccn2)nc1` [RubpyC17, [Ru(bpy)2(bpy-C17)](PF6)2] was tested, and the “rats in which the finding was reproduced” value (RCS rats; RCS rats injected with Rubpy-C17) was 3 of 3, the “time after injection with light-induced SC electrical responses” value (RCS rats; eye injection, RCS rats) was “up to 3 days” and the “light-elicited electrical activity in superior colliculus field recording” value (RCS rats; intravitreal, final concentration 100 μM, 30 minutes later, blind RCS rats) was “elicited reproducible and stereotypical electrical activity”. The “light effect on action potential firing” value ([1]; 900 nM RubpyC17 pretreatment, 5 mM ascorbate) was “triggered action potentials or increased the rate of action potential firing”, the “action potential firing rate of a single cell” value ([1]; 2 μM for 1.5 min, ascorbate changed for ferricyanide) was “light-induced increase and then light-induced decrease” and the “reversal of firing effect after light illumination terminated” value ([1]; chromaffin cells) was “slow, gradual reversal; also recorded: slowly reversed”. The “shape of action potential waveforms under light” value ([1]; chromaffin cells) was “no change in the shape of action potential waveforms”, the “light effect on rate of action potential firing” value ([1]; ferricyanide 100 μM) was “decreased the rate of action potential firing” and the “effect of increasing ferricyanide on action potential firing” value ([1]; ferricyanide from 100 to 200 μM) was “further suppressed action potential firing”. For the same compound, the “amperometric current spikes (vesicular secretion) under light” value (mouse chromaffin cells; 2 μM RubpyC17, 488 nm) was “exhibited numerous amperometric current spikes”, the “cells with increased secretion during light illumination” value (mouse chromaffin cells; 15 of 18 RubpyC17-loaded cells) was 83% and the “increase of secretion during light illumination” value (mouse chromaffin cells; responding cells) was “at least 100 fold”.
